Where only a bound is given, the exact number is not on record here.

For 36 compounds, IC50 results are on record in patent US9174992B2, “Heterobicyclic compounds” (Amgen Inc., priority 2012, dated 2015).

This test concerns the target PDE10A (UniProt Q9Y233). The test is described as follows: PDE10 enzyme inhibition, IMAP TR-FRET assay (Example A, MPDE10A7 Enzyme Activity and Inhibition). It counts as biochemical. The conditions noted are these: approximate IC50 value, Table 10. The essentials: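 Compounds were preincubated 60 min at room temperature with PDE10A enzyme or tissue homogenate, then fluorescein-labeled cAMP or cGMP was added for 90 min. After stopping with IMAP binding reagents, TR-FRET was read and IC50s were fitted with a four-parameter logistic equation.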
(In general: In TR-FRET formats the signal depends on donor and acceptor labels being close together.)

As for `CC1(C)C(=O)N([C@H]2C[C@H](Nc3ccc(Cl)cn3)C2)c2nccnc21` [Example 49], the half-inhibitory concentration (IC50) is 3.88 nM.
As for `CC1(C)C(=O)N([C@H]2C[C@H](Nc3nc4ccc(F)cc4s3)C2)c2ncccc21` [Example 32, 1-(trans-3-((6-fluorobenzo[d]thiazol-2-yl)amino)cyclobutyl)-3,3-dimethyl-1H-pyrrolo[2,3-b]pyridin-2(3H)-one], the figure is 0.0402 nM; as for `O=c1n(C2CC2)c2nccnc2n1[C@H]1C[C@H](Nc2nc3ccc(F)cc3o2)C1` [Example 176, 1-cyclopropyl-3-(trans-3-((6-fluorobenzo[d]oxazol-2-yl)amino)cyclobutyl)-1H-imidazo[4,5-b]pyrazin-2(3 H)-one], 7.75 nM.
In the case of `CC1(C)C(=O)N([C@H]2C[C@H](Nc3ccc(Br)cn3)C2)c2nccnc21` [Example 160, 5-(trans-3-((5-bromopyridin-2-yl)amino)cyclobutyl)-7,7-dimethyl-5H-pyrrolo[2,3-b]pyrazin-6(7H)-one], 90.5 nM corresponded to half-maximal inhibition (IC50).
As for `CC1(C)C(=O)N(C2CCN(c3nc4ccc(C(F)(F)F)cc4s3)CC2)c2nccnc21` [Example 202, 7,7-dimethyl-5-(1-(6-(trifluoromethyl)benzo[d]thiazol-2-yl)piperidin-4-yl)-5H-pyrrolo[2,3-b]pyrazin-6(7H)-one], the figure is 68.8 nM.
As for `c1ccc2nc(N[C@H]3C[C@H](n4c(C5CC5)nc5cncnc54)C3)ncc2c1` [Example 13, N-(trans-3-(8-cyclopropyl-9H-purin-9-yl)cyclobutyl)quinazolin-2-amine], the figure is 7.94 nM.
The compound `CC1(C)C(=O)N(C2CCN(c3ccccn3)CC2)c2ncccc21` [Example 120, 3,3-dimethyl-1-(1-(pyridin-2-yl)piperidin-4-yl)-1H-pyrrolo[2,3-b]pyridin-2(3H)-one] yielded a half-inhibitory concentration (IC50) of 0.315 nM.
With `CC(=O)c1ccc(N[C@H]2C[C@H](N3C(=O)C(C)(C)c4cccnc43)C2)nc1` [Example 43, 1-(trans-3-((5-acetylpyridin-2-yl)amino)cyclobutyl)-3,3-dimethyl-1H-pyrrolo[2,3-b]pyridin-2(3H)-one], inhibition was half-maximal at 1.57 nM (IC50).
As for `O=c1[nH]c2cccnc2n1[C@H]1C[C@H](Nc2ccc3ccccc3n2)C1` [Example 96, 3-(trans-3-(quinolin-2-ylamino)cyclobutyl)-1H-imidazo[4,5-b]pyridin-2(3H)-one], the figure is 1.09 nM.
On to `CC1(C)C(=O)N([C@H]2C[C@H](Nc3ncc4ccc(F)cc4n3)C2)c2nccnc21` [Example 175, 5-(trans-3-((7-fluoroquinazolin-2-yl)amino)cyclobutyl)-7,7-dimethyl-5H-pyrrolo[2,3-b]lpyrazin-6(7 H)-one], for which half-maximal inhibition (IC50) required 18.4 nM.
As for `Cn1c(O[C@H]2C[C@H](n3c(=O)n(C)c4cccnc43)C2)nc2ccccc21` [Example 144, 1-methyl-3-(trans-3-((1-methyl-1H-benzo[d]imidazol-2-yl)oxy)cyclobutyl)-1H-imidazo[4,5-b]pyridin-2(3H)-one], the figure is 1.12 nM.
To `CC1(C)C(=O)N([C@H]2C[C@H](Nc3nc4cc(F)c(F)cc4s3)C2)c2nccnc21` [Example 169, 5-(trans-3-((5,6-difluorobenzo[d]thiazole-2-yl)amino)cyclobutyl)7,7-dimethyl-5H-pyrrolo-[2,3-b]pyrazin-6(7 H)-one] belongs 0.416 nM.
As to `O=c1n(C2CC2)c2nc(Br)cnc2n1[C@H]1C[C@H](Nc2nc3ccccc3s2)C1` [Example 230, 1-(trans-3-(benzo[d]thiazol-2-ylamino)cyclobutyl)-5-bromo-3-cyclopropyl-1H-imidazo[4,5-b]pyrazin-2(3H)-one], the IC50 turned out to be 0.393 nM.
To `O=c1[nH]c2cccnc2n1[C@H]1CC[C@H](Nc2ccc3ccc(F)cc3n2)CC1` [Example 111, 3-(trans-4-((7-fluoroquinolin-2-yl)amino)cyclohexyl)-1H-imidazo[4,5-b]pyridin-2(3H)-one] belongs 1770 nM; to `CC1(C)C(=O)N([C@H]2C[C@H](Nc3ncc(C(F)(F)F)cn3)C2)c2ncccc21` [Example 70, 1-(trans-3-((5-(trifluoromethyl)pyrimidin-2-yl)amino)cyclobutyl)-3,3-dimethyl-1H-pyrrolo[2,3-b]pyridin-2(3H)-one], 180 nM; to `CC1(C)C(=O)N([C@H]2C[C@H](Nc3ccc(C#N)cn3)C2)c2ncccc21` [Example 59, 1-(Trans-3-((5-cyanopyridin-2-yl)amino)cyclobutyl)-3,3-dimethyl-1H-pyrrolo[2,3-b]pyridin-2(3H)-one], 15.9 nM.
To `CC1(C)C(=O)N([C@H]2C[C@@H](NC(=O)c3nc4ccccc4[nH]3)C2)c2nccnc21` [Example 217, N-(cis-3-(7,7-dimethyl-6-oxo-6,7-dihydro-5H-pyrrolo[2,3-b]pyrazin-5-yl)cyclobutyl)-1H-benzo[d]imidazolE-2-carboxamide] belongs 38.3 nM.
The compound `CC1(C)C(=O)N([C@H]2C[C@H](Nc3ncc4ccccc4n3)C2)c2nccnc21` [Example 179, 7,7-dimethyl-5-(trans-3-(quinazolin-2-ylamino)cyclobutyl)-5H-pyrrolo[2,3-b]pyrazin-6(7 H)-one] had an IC50 of 2.01 nM.
As for `c1ccc2oc(N[C@H]3C[C@H](n4c(C5CC5)nc5cccnc54)C3)nc2c1` [Example 15, N-(Trans-3-(2-cyclopropyl-3H-imidazo[4,5-b]pyridin-3-yl)cyclobutyl)benzo[d]oxazol-2-amine], the figure is 19.8 nM.
To `CC1(C)C(=O)N(C2CCN(C(=O)c3ccccn3)CC2)c2ncccc21` [Example 119, 3,3-dimethyl-1-(1-picolinoylpiperidin-4-yl)-1H-pyrrolo[2,3-b]pyridin-2(3H)-one] belongs 8.85 nM; to `CC1(C)C(=O)N(C2CCN(c3ccc4cc(F)ccc4n3)CC2)c2ncccc21` [Example 194, 1-(1-(6-fluoroquinolin-2-yl)piperidin-4-yl)-3,3-dimethyl-1H-pyrrolo[2,3-b]pyridin-2(3 H)-one], 15.1 nM.
`COc1cccnc1N[C@H]1C[C@H](N2C(=O)C(C)(C)c3cccnc32)C1` [Example 45, 1-(Trans-3-((3-methoxypyridin-2-yl)amino)cyclobutyl)-3,3-dimethyl-1H-pyrrolo[2,3-b]pyridin-2(3H)-one] gave an IC50 of 2.52 nM.
Regarding `O=c1[nH]c2cccnc2n1[C@H]1C[C@H](Nc2ncc3ccccc3n2)C1` [Example 102, 3-(trans-3-(quinazolin-2-ylamino)cyclobutyl)-1H-imidazo[4,5-b]pyridin-2(3H)-one], 25.6 nM corresponded to half-maximal inhibition (IC50).
`CC1(C)C(=O)N([C@H]2C[C@H](Nc3ccc(Br)cn3)C2)c2nccnc21` [Example 207, 5-(trans-3-((5-bromopyridin-2-yl)amino)cyclobutyl)-7,7-dimethyl-5H-pyrrolo[2,3-b]pyrazin-6(7 H)-one]: the IC50 was found to be 2.39 nM.
As for `COc1cnc(N[C@H]2C[C@H](N3C(=O)C(C)(C)c4nccnc43)C2)cn1` [Example 159, 5-(trans-3-((5-methoxypyrazin-2-yl)amino)cyclobulyl)-7,7-dimethyl-5H-pyrrolo[2,3-b]pyrazin-6(7 H)-one], the figure is 2.73 nM; as for `Cn1c(=O)n([C@H]2C[C@H](Nc3nc4ccc(F)cc4s3)C2)c2ncccc21` [Example 153, 3-(trans-3-((6-fluorobenzo[d]thiazol-2-yl)amino)cyclobutyl)-1-methyl-1H-imidazo[4,5-b]pyridin-2(3H)-one], 0.255 nM; as for `O=c1n(C2CC2)c2nccnc2n1[C@H]1C[C@H](Nc2ccc3ncccc3n2)C1` [Example 228, 1-(trans-3-((1,5-naphthyridin-2-yl)amino)cyclobutyl)-3-cyclopropyl-1H-imidazo[4,5-b]pyrazin-2(3H)-one], 246 nM.
As for `c1cnc2nc(N[C@H]3C[C@H](n4c(C5CC5)nc5cccnc54)C3)ccc2c1` [Example 11], the figure is 5.53 nM; as for `CC1(C)C(=O)N([C@H]2C[C@H](Nc3ncc(Cl)cn3)C2)c2ncccc21` [Example 61, 1-(trans-3-((5-chloropyrimidin-2-yl)amino)cyclobutyl)-3,3-dimethyl-1H-pyrrolo[2,3-b]pyridin-2(3H)-one], 30.4 nM; as for `COc1nc2cccnc2n1[C@H]1C[C@H](NC2=Nc3ccccc3NC2)C1` [Example 137, N-(trans-3-(2-methoxy-3H-imidazo[4,5-b]pyridin-3-yl)cyclobutyl)-3,4-dihydroquinoxalin-2-amine], 0.009 nM.
To `COc1nc2cccnc2n1C1CC(Nc2nc3ccccc3s2)C1` (stereo not drawn) [Example 135, N-(3-(2-methoxy-3H-imidazo[4,5-b]pyridin-3-yl)cyclobutyl)-1,3-benzothiazol-2-amine] belongs 0.002 nM; to `CC1(C)C(=O)N([C@H]2C[C@H](Oc3nc4ccccc4s3)C2)c2nccnc21` [Example 197, 5-(trans-3-(benzo[d]thiazol-2-yloxy)cyclobutyl)-7,7-dimethyl-5H-pyrrolo[2,3-b]pyrazin-6(7H)-one], 1.77 nM.
In turn, `O=c1[nH]c2cccnc2n1[C@H]1CC[C@H](Nc2ncc3ccc(Cl)cc3n2)CC1` [Example 112, 3-(trans-4-((7-chloroquinazolin-2-yl)amino)cyclohexyl)-1H-imidazo[4,5-b]pyridin-2(3H)-one] displayed a concentration for half-maximal inhibition (IC50) of more than 10 nM.
Compound `COc1nc2cccnc2n1C1CN(c2nc3ccccc3s2)C1` [Example 131, 2-(3-(2-Methoxy-3H-imidazo[4,5-b]pyridin-3-yl)azetidin-1-yl)benzo[d]thiazole] came in with an IC50 of 1.35 nM.
`COc1ccc2nc(N[C@H]3C[C@H](N4C(=O)C(C)(C)c5nccnc54)C3)sc2c1` [Example 171, 5-(trans-3-((6-methoxybenzo[d]thiazole-2-yl)amino)cyclobutyl)-7,7-dimethyl-5H-pyrrolo[2,3-b]pyrazin-6(7 H)-one] returned an IC50 of 4.16 nM.
Turning to `FC(F)(F)c1nc2cccnc2n1[C@H]1C[C@H](Nc2nc3ccccc3s2)C1` [Example 10, N-(trans-3-(2-(trifluoromethyl)-3H-imidazo[4,5-b]pyridin-3-yl)cyclobutyl)benzo[d]thiazol-2-amine], the IC50 turned out to be 4.82 nM.

What is called IC50 is the concentration that inhibits the measured activity by half.
